Results reported in patent US20180320217A1, “METHODS FOR SAMPLING AND MEASURING ORAL LAVAGE PROTEINS” (The Procter & Gamble Company, priority 2017, published 2018).
Where a name gives a salt, the structure may show the parent alone.

Experiments:
oral lavage [1] = assay: Formation of formazan dyes: oral lavage, malate and 1-Methoxy PMS (TABLE 20); format: biochemical, human; conditions: oral lavage, malate and 1-Methoxy PMS, mean of three experiments
diaphorase [2] = assay: Effect of concentrations of tetrazolium salts on formation of formazan dyes (FIGS. 4A-4G); format: biochemical; conditions: 15 mM NADH+H, 20 μg diaphorase, pH 7.5; FIGS. 4A to 4G
Method: On the idea that higher concentrations of tetrazolium salts in the assay buffer would likely result in more formazan dyes in the reaction, various concentrations of tetrazolium salts were added to a reaction buffer and the formation of formazan dyes were measured at 0, 30 and 60 minutes. […] The reactions were performed at room temperature. Absorbance was taken at 0, 30 and 60 minutes.

oral lavage [3] = assay: Formation of formazan dyes: oral lavage, malate and diaphorase (TABLE 12); format: biochemical, human; conditions: oral lavage, malate and diaphorase
[4] = Formation of formazan dyes: NADH and 1-methoxy PMS, absence of malate (TABLE 15); format: biochemical; conditions: NADH and 1-methoxy PMS, absence of malate, mean of three experiments
diaphorase [5] = assay: Formation of formazan dyes: only diaphorase and malate (TABLE 14); format: biochemical, Clostridium kluyveri; conditions: mean of three experiments
diaphorase [6] = assay: Formation of formazan dyes: NADH and diaphorase, absence of malate (TABLE 7); format: biochemical, Clostridium kluyveri; conditions: NADH and diaphorase, absence of malate
[7] = Formation of formazan dyes: control buffer, malate and 1-Methoxy PMS (TABLE 22); format: biochemical; conditions: control buffer, malate and 1-Methoxy PMS, mean of three experiments
diaphorase [8] = assay: Formation of formazan dyes: NADH, diaphorase and malate (TABLE 8); format: biochemical, Clostridium kluyveri; conditions: NADH, diaphorase and malate
oral lavage [9] = assay: Formation of formazan dyes: oral lavage and 1-Methoxy PMS, absence of malate (TABLE 19); format: biochemical, human; conditions: oral lavage and 1-Methoxy PMS, absence of malate, mean of three experiments
Malate dehydrogenase = target: T1, Malate dehydrogenase (Sus scrofa, UniProt P00346); assay: Formation of formazan dyes: Malate dehydrogenase and 1-Methoxy PMS, absence of malate (TABLE 17); format: biochemical, pig heart; parameters: L-malate dehydrogenase (pig heart); purchased Sigma-Aldrich 10127248001 / 10127914001; conditions: Malate dehydrogenase and 1-Methoxy PMS, absence of malate, mean of three experiments
T1 sequence (P00346 25-338): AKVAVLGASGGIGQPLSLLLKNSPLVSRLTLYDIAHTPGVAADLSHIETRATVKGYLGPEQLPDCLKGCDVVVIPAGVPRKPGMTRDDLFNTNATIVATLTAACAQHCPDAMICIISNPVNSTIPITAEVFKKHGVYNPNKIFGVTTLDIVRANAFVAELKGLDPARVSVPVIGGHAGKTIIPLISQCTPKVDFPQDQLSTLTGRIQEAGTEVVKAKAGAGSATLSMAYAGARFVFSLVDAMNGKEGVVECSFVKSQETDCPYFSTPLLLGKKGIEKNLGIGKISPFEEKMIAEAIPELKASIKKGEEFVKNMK

diaphorase [10] = assay: Formation of formazan dyes: only diaphorase, not malate (TABLE 13); format: biochemical, Clostridium kluyveri; conditions: mean of three experiments
[11] = tested on: Malate dehydrogenase and diaphorase; assay: Formation of formazan dyes: Malate dehydrogenase, diaphorase and malate (TABLE 10); format: biochemical, pig heart

concentration of tetrazolium salt at which absorbance reached peaks (diaphorase [2]): around 1.5 mM
Formation of formazan dyes, absorbance, Means 0 h (oral lavage [3]; 0 h): 0.68
Formation of formazan dyes, absorbance, Means 1 h (oral lavage [3]; 1 h): 0.93
Formation of formazan dyes, absorbance, Means 2 h (oral lavage [3]; 2 h): 1.07
Formation of formazan dyes, absorbance, Means 3 h (oral lavage [3]; 3 h): 1.14
Formation of formazan dyes, absorbance, Means 4 h (oral lavage [3]; 4 h): 1.34
Formation of formazan dyes, absorbance, Means 6 h (oral lavage [3]; 6 h): 1.56
Formation of formazan dyes, absorbance, Means 8 h (oral lavage [3]; 8 h): 1.84
Formation of formazan dyes, absorbance, Means 10 h (oral lavage [3]; 10 h): 2.10
Formation of formazan dyes, absorbance, Means 12 h (oral lavage [3]; 12 h): 2.27
Absorbance, formation of formazan dyes (Means) (diaphorase [5]; 0 h): 0.16
Absorbance, formation of formazan dyes (Means) (diaphorase [5]; 1 h): 0.22
Absorbance, formation of formazan dyes (Means) (diaphorase [5]; 2 h): 0.27
Absorbance, formation of formazan dyes (Means) (diaphorase [5]; 3 h): 0.32
Absorbance, formation of formazan dyes (Means) (diaphorase [5]; 4 h): 0.46
Absorbance, formation of formazan dyes (Means) (diaphorase [5]; 6 h): 0.57
Absorbance, formation of formazan dyes (Means) (diaphorase [5]; 8 h): 0.68
Absorbance, formation of formazan dyes (Means) (diaphorase [5]; 10 h): 0.79
Absorbance, formation of formazan dyes (Means) (diaphorase [5]; 12 h): 0.93
Formation of formazan dyes, absorbance, Means 0 h (diaphorase [6]; 0 h): 3.21
Formation of formazan dyes, absorbance, Means 1 h (diaphorase [6]; 1 h): 3.24
Formation of formazan dyes, absorbance, Means 2 h (diaphorase [6]; 2 h): 3.22
Formation of formazan dyes, absorbance, Means 3 h (diaphorase [6]; 3 h): 3.20
Formation of formazan dyes, absorbance, Means 4 h (diaphorase [6]; 4 h): 3.27
Formation of formazan dyes, absorbance, Means 6 h (diaphorase [6]; 6 h): 3.29
Formation of formazan dyes, absorbance, Means 8 h (diaphorase [6]; 8 h): 3.28
Formation of formazan dyes, absorbance, Means 10 h (diaphorase [6]; 10 h): 3.28
Formation of formazan dyes, absorbance, Means 12 h (diaphorase [6]; 12 h): 3.28
Formation of formazan dyes, absorbance, Means 0 h (diaphorase [8]; 0 h): 3.01
Formation of formazan dyes, absorbance, Means 1 h (diaphorase [8]; 1 h): 3.01
Formation of formazan dyes, absorbance, Means 2 h (diaphorase [8]; 2 h): 3.00
Formation of formazan dyes, absorbance, Means 3 h (diaphorase [8]; 3 h): 3.00
Formation of formazan dyes, absorbance, Means 4 h (diaphorase [8]; 4 h): 3.07
Formation of formazan dyes, absorbance, Means 6 h (diaphorase [8]; 6 h): 3.09
Formation of formazan dyes, absorbance, Means 8 h (diaphorase [8]; 8 h): 3.17
Formation of formazan dyes, absorbance, Means 10 h (diaphorase [8]; 10 h): 3.08
Formation of formazan dyes, absorbance, Means 12 h (diaphorase [8]; 12 h): 3.20
Absorbance, formation of formazan dyes (Means) (Malate dehydrogenase; 0 h): 0.34
Absorbance, formation of formazan dyes (Means) (Malate dehydrogenase; 1 h): 0.36
Absorbance, formation of formazan dyes (Means) (Malate dehydrogenase; 2 h): 0.33
Absorbance, formation of formazan dyes (Means) (Malate dehydrogenase; 3 h): 0.33
Absorbance, formation of formazan dyes (Means) (Malate dehydrogenase; 4 h): 0.41
Absorbance, formation of formazan dyes (Means) (Malate dehydrogenase; 6 h): 0.48
Absorbance, formation of formazan dyes (Means) (Malate dehydrogenase; 8 h): 0.48
Absorbance, formation of formazan dyes (Means) (Malate dehydrogenase; 10 h): 0.52
Absorbance, formation of formazan dyes (Means) (Malate dehydrogenase; 12 h): 0.51
Absorbance, formation of formazan dyes (Means) (diaphorase [10]; 0 h): 0.16
Absorbance, formation of formazan dyes (Means) (diaphorase [10]; 1 h): 0.25
Absorbance, formation of formazan dyes (Means) (diaphorase [10]; 2 h): 0.26
Absorbance, formation of formazan dyes (Means) (diaphorase [10]; 3 h): 0.22
Absorbance, formation of formazan dyes (Means) (diaphorase [10]; 4 h): 0.17
Absorbance, formation of formazan dyes (Means) (diaphorase [10]; 6 h): 0.20
Absorbance, formation of formazan dyes (Means) (diaphorase [10]; 8 h): 0.16
Absorbance, formation of formazan dyes (Means) (diaphorase [10]; 10 h): 0.13
Absorbance, formation of formazan dyes (Means) (diaphorase [10]; 12 h): 0.14
Formation of formazan dyes, absorbance, Means 0 h ([11]; Malate dehydrogenase, diaphorase and malate, 0 h): 1.72
Formation of formazan dyes, absorbance, Means 1 h ([11]; Malate dehydrogenase, diaphorase and malate, 1 h): 2.67
Formation of formazan dyes, absorbance, Means 2 h ([11]; Malate dehydrogenase, diaphorase and malate, 2 h): 2.93
Formation of formazan dyes, absorbance, Means 3 h ([11]; Malate dehydrogenase, diaphorase and malate, 3 h): 3.12
Formation of formazan dyes, absorbance, Means 4 h ([11]; Malate dehydrogenase, diaphorase and malate, 4 h): 3.48
Formation of formazan dyes, absorbance, Means 6 h ([11]; Malate dehydrogenase, diaphorase and malate, 6 h): 3.67
Formation of formazan dyes, absorbance, Means 8 h ([11]; Malate dehydrogenase, diaphorase and malate, 8 h): 3.73
Formation of formazan dyes, absorbance, Means 10 h ([11]; Malate dehydrogenase, diaphorase and malate, 10 h): 3.74
Formation of formazan dyes, absorbance, Means 12 h ([11]; Malate dehydrogenase, diaphorase and malate, 12 h): 3.71
SMILES: Cc1nc(-[n+]2nc(-c3cccc(OCC(=O)O)c3)nn2-c2ccc(S(=O)(=O)[O-])cc2)sc1C [MTS, 3-(4,5-dimethylthiazol-2-yl)-5-(3-carboxymethoxyphenyl)-2-(4-sulfophenyl)-2H-tetrazolium, inner salt]
Absorbance, formation of formazan dyes (Means) (oral lavage [1]; 0 h): 0.78
Absorbance, formation of formazan dyes (Means) (oral lavage [1]; 1 h): 1.33
Absorbance, formation of formazan dyes (Means) (oral lavage [1]; 2 h): 1.69
Absorbance, formation of formazan dyes (Means) (oral lavage [1]; 3 h): 1.90
Absorbance, formation of formazan dyes (Means) (oral lavage [1]; 4 h): 1.87
Absorbance, formation of formazan dyes (Means) (oral lavage [1]; 6 h): 2.27
Absorbance, formation of formazan dyes (Means) (oral lavage [1]; 8 h): 2.60
Absorbance, formation of formazan dyes (Means) (oral lavage [1]; 10 h): 2.89
Absorbance, formation of formazan dyes (Means) (oral lavage [1]; 12 h): 3.22
Absorbance, formation of formazan dyes (Means) ([4]; 0 h): 2.31
Absorbance, formation of formazan dyes (Means) ([4]; 1 h): 2.55
Absorbance, formation of formazan dyes (Means) ([4]; 2 h): 2.60
Absorbance, formation of formazan dyes (Means) ([4]; 3 h): 2.59
Absorbance, formation of formazan dyes (Means) ([4]; 4 h): 2.63
Absorbance, formation of formazan dyes (Means) ([4]; 6 h): 2.65
Absorbance, formation of formazan dyes (Means) ([4]; 8 h): 2.69
Absorbance, formation of formazan dyes (Means) ([4]; 10 h): 2.67
Absorbance, formation of formazan dyes (Means) ([4]; 12 h): 2.65
Means absorbance 0 h ([7]; 0 h): 0.20
Means absorbance 1 h ([7]; 1 h): 0.20
Means absorbance 2 h ([7]; 2 h): 0.21
Means absorbance 3 h ([7]; 3 h): 0.23
Means absorbance 4 h ([7]; 4 h): 0.25
Means absorbance 6 h ([7]; 6 h): 0.33
Means absorbance 8 h ([7]; 8 h): 0.36
Means absorbance 10 h ([7]; 10 h): 0.47
Means absorbance 12 h ([7]; 12 h): 0.50
Absorbance, formation of formazan dyes (Means) (oral lavage [9]; 0 h): 0.87
Absorbance, formation of formazan dyes (Means) (oral lavage [9]; 1 h): 1.50
Absorbance, formation of formazan dyes (Means) (oral lavage [9]; 2 h): 1.82
Absorbance, formation of formazan dyes (Means) (oral lavage [9]; 3 h): 2.08
Absorbance, formation of formazan dyes (Means) (oral lavage [9]; 4 h): 1.94
Absorbance, formation of formazan dyes (Means) (oral lavage [9]; 6 h): 2.32
Absorbance, formation of formazan dyes (Means) (oral lavage [9]; 8 h): 2.51
Absorbance, formation of formazan dyes (Means) (oral lavage [9]; 10 h): 2.66
Absorbance, formation of formazan dyes (Means) (oral lavage [9]; 12 h): 2.74
conversion to reduced formazan dyes ([11]; malate dehydrogenase, diaphorase and malate (TABLE 10)): converted to reduced formazan dyes in a time-dependent manner
